Measurements from patent publication US7199159B2, “Use of biguanide derivatives for making a medicine having a wound healing effect” (Centre National de la Recherche Scientifique (C.N.R.S.), priority 2000, dated 2007).

Test system: skin wounds reproducing ulceration
Assay: cicatrization of punch skin wounds (pseudo-ulcer) treated daily with metformin ointment
Type: in vivo, Zucker fa/fa rats
Description: The efficacy of metformin was tested in vivo on skin wounds reproducing ulceration. The pseudo-ulcer was produced on 14-week-old Zucker fa/fa rats by loss of matter of circular shape 8 mm in diameter made by a “punch”, down to the muscle layer. […] The speed of the cicatrization was evaluated by determining the area of the wounds with a video camera coupled to a computer equipped with image analysis software.
Furthermore, metformin at a concentration of 1% by weight relative to the lipophilic phase also appears to exert an effect on neovascularizaton.
The results of the microscopic analysis of histological sections of the wounds are collated in Table 1 below.

In the case of `CN(C)C(=N)N=C(N)N` [metformin], the “collagen density in granulation tissue” value (FIG. 3, D4) was “increase in the collagen density”, the “cicatrization (area of the wounds by image analysis)” value (daily treatment, ointment at different metformin concentrations) was “significant improvement in cicatrization” and the “epidermization compared with untreated control animals” value (different metformin concentrations) was “acceleration of epidermization”. For the same compound, the “closure of the treated wounds vs untreated control wounds” value (four metformin concentrations, FIG. 2) was “closure of the treated wounds is faster than of the untreated control wounds”, the “neovascularization (density of blood capillaries on the edges of the wound)” value (metformin 1%, D5, treated vs control rats) was “greater density of blood capillaries on the edges of the wound” and the “cicatrizing action, dose-response study” value (ointment with metformin at 0.02%, 0.1%, and 2%) was “cicatrizing action for all the concentrations tested”. For the same compound, the “speed of maturation of granulation tissue” value (rat, in vivo) was “significantly increases the speed of maturation of granulation tissue”.
